35 molecules from patent publication US8697727B2, “N-substituted-heterocycloalkyloxybenzamide compounds and methods of use” (Rigel Pharmaceuticals, Inc., priority 2006, dated 2014) can be followed below.

The assay concerns AMPK. Description: AMPK activation, enzyme-linked immunosorbent assay. The assay is classed as cell-based. The method in brief:
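AMPK activity in cells was measured by enzyme-linked immunosorbent assay as the relative concentration of phosphorylated acetyl-CoA carboxylase, which AMPK produces. From this, an EC50 for AMPK activation was determined for each compound. Ranges used: less than 1 μM, 1-10 μM, 10-20 μM, 20-50 μM, 50-100 μM, and >100 μM.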

A word on the EC50: it is the concentration needed to bring the measured effect to its halfway point. Read a high EC50 as weaker potency. In turn, `O=C(NC1CCN(Cc2ccccc2)CC1)c1ccc(OC2CCN(Cc3ccc(OC(F)(F)F)cc3)CC2)cc1` [Compound 63, N-(1-benzylpiperidin-4-yl)-4-(1-(4-(trifluoromethoxy)benzyl)piperidin-4-yloxy)benzamide] had an EC50 of less than 1000 nM.

On to `O=C(NC1CCN(Cc2ccccc2)CC1)c1ccc(OC2CCN(Cc3ccc(Cl)cc3)CC2)c(F)c1` [Compound 64, N-(1-benzylpiperidin-4-yl)-4-(1-(4-chlorobenzyl)piperidin-4-yloxy)-3-fluorobenzamide], for which the EC50 was less than 1000 nM.

Consider `O=C(NC1CCN(Cc2ccccc2)CC1)c1ccc(OC2CCN(Cc3ccc(Cl)cc3)CC2)c(Cl)c1` [Compound 65, N-(1-benzylpiperidin-4-yl)-3-chloro-4-(1-(4-chlorobenzyl)piperidin-4-yloxy)benzamide], for which the EC50 is less than 1000 nM.

`O=C(NC1CCN(Cc2ccc(F)cc2)CC1)c1ccc(OC2CCN(Cc3ccc(Cl)cc3)CC2)c(Cl)c1` [Compound 66, 3-chloro-4-(1-(4-chlorobenzyl)piperidin-4-yloxy)-N-(1-(4-fluorobenzyl)piperidin-4-yl)benzamide] came in with an EC50 of less than 1000 nM.

As to `N#Cc1ccc(CN2CCC(Oc3ccc(C(=O)NC4CCN(Cc5ccccc5)CC4)cc3Cl)CC2)cc1` [Compound 67, N-(1-benzylpiperidin-4-yl)-3-chloro-4-(1-(4-cyanobenzyl)piperidin-4-yloxy)benzamide], the concentration giving a half-maximal response (EC50) was less than 1000 nM.

For `Cc1ccc(CN2CCC(Oc3ccc(C(=O)NC4CCN(Cc5ccc(F)cc5)CC4)cc3Cl)CC2)cc1` [Compound 68, 3-chloro-N-(1-(4-fluorobenzyl)piperidin-4-yl)-4-(1-(4-methylbenzyl)piperidin-4-yloxy)benzamide], the EC50 was less than 1000 nM.

Consider `O=C(NC1CCN(Cc2ccccc2)CC1)c1ccc(OC2CCN(Cc3ccc(F)c(F)c3)CC2)c(F)c1` [Compound 69, N-(1-benzylpiperidin-4-yl)-4-(1-(3,4-difluorobenzyl)piperidin-4-yloxy)-3-fluorobenzamide], for which the EC50 was less than 1000 nM.

`N#Cc1ccc(CN2CCC(Oc3ccc(C(=O)NC4CCN(Cc5ccc(Cl)cc5)CC4)cc3F)CC2)cc1` [Compound 70, N-(1-(4-chlorobenzyl)piperidin-4-yl)-4-(1-(4-cyanobenzyl)piperidin-4-yloxy)-3-fluorobenzamide] registered an EC50 of less than 1000 nM.

`O=C(NC1CCN(Cc2ccc(Cl)cc2)CC1)c1ccc(OC2CCN(Cc3ccc(F)c(F)c3)CC2)c(F)c1` [Compound 71, N-(1-(4-chlorobenzyl)piperidin-4-yl)-4-(1-(3,4-difluorobenzyl)piperidin-4-yloxy)-3-fluorobenzamide] registered an EC50 of less than 1000 nM.

Molecule `O=C(NC1CCN(Cc2ccc(Cl)cc2)CC1)c1ccc(OC2CCN(Cc3ccc(Cl)cc3)CC2)c(F)c1` [Compound 72, N-(1-(4-chlorobenzyl)piperidin-4-yl)-4-(1-(4-chlorobenzyl)piperidin-4-yloxy)-3-fluorobenzamide] had an EC50 of less than 1000 nM.

The molecule `Cc1ccc(CN2CCC(Oc3ccc(C(=O)NC4CCN(Cc5ccc(Cl)cc5)CC4)cc3F)CC2)cc1` [Compound 73, N-(1-(4-chlorobenzyl)piperidin-4-yl)-3-fluoro-4-(1-(4-methylbenzyl)piperidin-4-yloxy)benzamide] had an EC50 of less than 1000 nM.

The molecule `O=C(NC1CCN(Cc2ccccc2)CC1)c1ccc(OC2CCN(Cc3ccc(F)c(F)c3)CC2)c(Cl)c1` [Compound 74, N-(1-benzylpiperidin-4-yl)-3-chloro-4-(1-(3,4-difluorobenzyl)piperidin-4-yloxy)benzamide] gave an EC50 of less than 1000 nM.

With `O=C(NC1CCN(Cc2ccccc2)CC1)c1cc(Cl)c(OC2CCN(Cc3ccc(Cl)cc3)CC2)c(Cl)c1` [Compound 75, N-(1-benzylpiperidin-4-yl)-3,5-dichloro-4-(1-(4-chlorobenzyl)piperidin-4-yloxy)benzamide], the EC50 is less than 1000 nM.

In turn, `O=C(NC1CCN(Cc2ccccc2)CC1)c1cc(Cl)c(OC2CCN(Cc3ccc(F)c(F)c3)CC2)c(Cl)c1` [Compound 76, N-(1-benzylpiperidin-4-yl)-3,5-dichloro-4-(1-(3,4-difluorobenzyl)piperidin-4-yloxy)benzamide] showed a concentration for a half-maximal effect (EC50) of less than 1000 nM.

As to `N#Cc1ccc(CN2CCC(Oc3c(Cl)cc(C(=O)NC4CCN(Cc5ccccc5)CC4)cc3Cl)CC2)cc1` [Compound 77, N-(1-benzylpiperidin-4-yl)-3,5-dichloro-4-(1-(4-cyanobenzyl)piperidin-4-yloxy)benzamide], the half-maximal effective concentration (EC50) is less than 1000 nM.

Take `CC(C)(C)OC(=O)N1CCC(NC(=O)c2ccc(OC3CCN(Cc4ccc(C#N)cc4)CC3)cc2)CC1` [Compound 78, tert-butyl 4-(4-(1-(4-cyanobenzyl)piperidin-4-yloxy)benzamido)piperidine-1-carboxylate]: the EC50 was less than 1000 nM.

The molecule `N#Cc1ccc(CN2CCC(Oc3ccc(C(=O)NC4CCNCC4)cc3)CC2)cc1` [Compound 79, 4-(1-(4-cyanobenzyl)piperidin-4-yloxy)-N-(piperidin-4-yl)benzamide] yielded a 50% effective concentration (EC50) of more than 100000 nM.

`O=C(NC1CCN(Cc2ccc(Cl)cc2)CC1)c1ccc(OC2CCN(Cc3ccc(Cl)c(Cl)c3)CC2)c(F)c1` [Compound 80, N-(1-(4-chlorobenzyl)piperidin-4-yl)-4-(1-(3,4-dichlorobenzyl)piperidin-4-yloxy)-3-fluorobenzamide] displayed an EC50 of less than 1000 nM.

`N#Cc1ccc(N2CCC(Oc3ccc(C(=O)NC4CCN(Cc5ccc(Cl)cc5)CC4)cc3F)CC2)cc1` [Compound 81, N-(1-(4-chlorobenzyl)piperidin-4-yl)-4-(1-(4-cyanophenyl)piperidin-4-yloxy)-3-fluorobenzamide] yielded an EC50 of less than 1000 nM.

`O=C(NC1CCN(Cc2ccccc2)CC1)c1ccc(OC2CCN(Cc3ccc(Cl)c(Cl)c3)CC2)c(F)c1` [Compound 82, N-(1-benzylpiperidin-4-yl)-4-(1-(3,4-dichlorobenzyl)piperidin-4-yloxy)-3-fluorobenzamide] displayed an EC50 of less than 1000 nM.

In turn, `N#Cc1ccc(CN2CCC(Oc3ccc(C(=O)NC4CCN(Cc5ccncc5)CC4)cc3)CC2)cc1` [Compound 83, 4-(1-(4-cyanobenzyl)piperidin-4-yloxy)-N-(1-(pyridin-4-ylmethyl)piperidin-4-yl)benzamide] returned an EC50 of less than 1000 nM.

`O=C(NC1CCN(Cc2ccccc2)CC1)c1ccc(OC2CCN(Cc3ccc(Cl)c(Cl)c3)CC2)c(Cl)c1` [Compound 84, N-(1-benzylpiperidin-4-yl)-3-chloro-4-(1-(3,4-dichlorobenzyl)piperidin-4-yloxy)benzamide] yielded an EC50 of less than 1000 nM.

Molecule `N#Cc1ccc(CN2CCC(Oc3ccc(C(=O)NC4CCN(Cc5ccccn5)CC4)cc3)CC2)cc1` [Compound 85, 4-(1-(4-cyanobenzyl)piperidin-4-yloxy)-N-(1-(pyridin-2-ylmethyl)piperidin-4-yl)benzamide] displayed an EC50 of less than 1000 nM.

Take `O=C(NC1CCN(Cc2ccccc2)CC1)c1cccc(OC2CCN(c3ccccn3)CC2)c1` [Compound 86, N-(1-benzylpiperidin-4-yl)-3-(1-(pyridin-2-yl)piperidin-4-yloxy)benzamide]: the EC50 is less than 1000 nM.

Molecule `O=C(NC1CCN(Cc2ccncc2)CC1)c1cccc(OC2CCN(c3ccc(C(F)(F)F)cc3)CC2)c1` [Compound 87, N-(1-(pyridin-4-ylmethyl)piperidin-4-yl)-3-(1-(4-(trifluoromethyl)phenyl)piperidin-4-yloxy)benzamide] registered an EC50 of less than 1000 nM.

`N#Cc1ccc(N2CCC(Oc3cccc(C(=O)NC4CCN(Cc5ccncc5)CC4)c3)CC2)cc1` [Compound 88, N-(1-(pyridin-4-ylmethyl)piperidin-4-yl)-3-(1-(4-cyanophenyl)piperidin-4-yloxy)benzamide] registered a 50% effective concentration (EC50) of 1000 to 10000 nM.

As to `N#Cc1cccc(CN2CCC(Oc3cccc(C(=O)NC4CCN(Cc5ccccc5)CC4)c3)CC2)c1` [Compound 89, N-(1-benzylpiperidin-4-yl)-3-(1-(3-cyanobenzyl)piperidin-4-yloxy)benzamide], the EC50 fell in the range of 1000 to 10000 nM.

The molecule `CC(C)(C)OC(=O)N1CCC(Oc2ccc(C(=O)NC3CCN(Cc4ccccc4)CC3)cc2Cl)CC1` [Compound 90, tert-butyl 4-(4-(1-benzylpiperidin-4-ylcarbamoyl)-2-chlorophenoxy)piperidine-1-carboxylate] gave an EC50 of 1000 to 10000 nM.

As for `CC(C)(C)C(=O)N1CCC(Oc2ccc(C(=O)NC3CCN(Cc4ccccc4)CC3)cc2Cl)CC1` [Compound 91, N-(1-benzylpiperidin-4-yl)-3-chloro-4-(1-pivaloylpiperidin-4-yloxy)benzamide], the EC50 was less than 1000 nM.

For `CC(C)(C)OC(=O)N1CCC(Oc2ccc(C(=O)NC3CCN(Cc4ccccc4)CC3)cc2F)CC1` [Compound 92, tert-butyl 4-(4-(1-benzylpiperidin-4-ylcarbamoyl)-2-fluorophenoxy)piperidine-1-carboxylate], the EC50 lay in the range of 1000 to 10000 nM.

`O=C(NC1CCN(Cc2ccccc2)CC1)c1ccc(OC2CCNCC2)c(Cl)c1` [Compound 93, N-(1-benzylpiperidin-4-yl)-3-chloro-4-(piperidin-4-yloxy)benzamide] had an EC50 of more than 100000 nM.

Take `COc1ccc(CN2CCC(Oc3ccc(C(=O)N4CCN(C(=O)OC(C)(C)C)CC4)cc3)CC2)cc1` [Compound 96, tert-butyl 4-(4-(1-(4-methoxybenzyl)piperidin-4-yloxy)benzoyl)piperazine-1-carboxylate]: the EC50 was in the range of 1000 to 10000 nM.

Turning to `COc1ccc(CN2CCC(Oc3ccc(C(=O)NCCCNC(=O)OC(C)(C)C)cc3Cl)CC2)cc1` [Compound 97, tert-butyl 3-(3-chloro-4-(1-(4-methoxybenzyl)piperidin-4-yloxy)benzamido)propylcarbamate], the EC50 is 1000 to 10000 nM.

On to `COc1cc(C(=O)NCCCN2CCOCC2)ccc1OC1CCN(Cc2ccc(Cl)cc2)CC1` [Compound 98], for which the EC50 fell in the range of 1000 to 10000 nM.

As for `CC(C)(C)OC(=O)N1CCN(C(=O)c2ccc(OC3CCN(Cc4ccccc4)CC3)cc2)CC1` [Compound 99, tert-butyl 4-(4-(1-benzylpiperidin-4-yloxy)benzoyl)piperazine-1-carboxylate], the 50% effective concentration (EC50) was 1000 to 10000 nM.
